Active and inactive are the calls of the source.
Tests used:
[1] = M. tuberculosis H37Rv growth inhibitors, H37Rv strain (AID 1626); type: functional
[2] = target: T1, Microphthalmia-associated transcription factor (Homo sapiens, UniProt O75030); assay: TRPM1 promoter luciferase signal decrease, dose response, MITF inhibitor project, cell-based, SK-MEL-5, cherry-picked, set 3 (AID 493073); type: functional
T1 sequence (O75030 whole entry): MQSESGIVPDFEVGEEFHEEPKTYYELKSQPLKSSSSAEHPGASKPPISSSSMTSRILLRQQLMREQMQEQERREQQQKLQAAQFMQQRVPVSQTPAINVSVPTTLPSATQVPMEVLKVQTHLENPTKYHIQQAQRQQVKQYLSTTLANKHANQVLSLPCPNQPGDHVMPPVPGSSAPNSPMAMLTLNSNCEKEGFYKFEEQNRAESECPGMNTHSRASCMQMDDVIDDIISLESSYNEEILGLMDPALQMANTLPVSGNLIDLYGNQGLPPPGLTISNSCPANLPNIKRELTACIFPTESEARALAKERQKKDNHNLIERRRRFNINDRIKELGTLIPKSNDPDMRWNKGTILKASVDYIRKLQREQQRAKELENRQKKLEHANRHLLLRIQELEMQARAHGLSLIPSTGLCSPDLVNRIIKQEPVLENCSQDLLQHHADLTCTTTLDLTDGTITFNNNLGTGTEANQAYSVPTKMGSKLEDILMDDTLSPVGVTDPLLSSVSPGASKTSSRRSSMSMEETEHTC

[3] = target: T2, Short transient receptor potential channel 4 (Mus musculus, UniProt Q9QUQ5); assay: mouse TRPC4 channel inhibitors, dose response, cell-based, HEK293 TRPC4/mu-opioid, Fluo-4 calcium (AID 434942); type: functional;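 note: potency of inhibitors blocking the TRPC4 calcium response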
T2 sequence (Q9QUQ5 whole entry): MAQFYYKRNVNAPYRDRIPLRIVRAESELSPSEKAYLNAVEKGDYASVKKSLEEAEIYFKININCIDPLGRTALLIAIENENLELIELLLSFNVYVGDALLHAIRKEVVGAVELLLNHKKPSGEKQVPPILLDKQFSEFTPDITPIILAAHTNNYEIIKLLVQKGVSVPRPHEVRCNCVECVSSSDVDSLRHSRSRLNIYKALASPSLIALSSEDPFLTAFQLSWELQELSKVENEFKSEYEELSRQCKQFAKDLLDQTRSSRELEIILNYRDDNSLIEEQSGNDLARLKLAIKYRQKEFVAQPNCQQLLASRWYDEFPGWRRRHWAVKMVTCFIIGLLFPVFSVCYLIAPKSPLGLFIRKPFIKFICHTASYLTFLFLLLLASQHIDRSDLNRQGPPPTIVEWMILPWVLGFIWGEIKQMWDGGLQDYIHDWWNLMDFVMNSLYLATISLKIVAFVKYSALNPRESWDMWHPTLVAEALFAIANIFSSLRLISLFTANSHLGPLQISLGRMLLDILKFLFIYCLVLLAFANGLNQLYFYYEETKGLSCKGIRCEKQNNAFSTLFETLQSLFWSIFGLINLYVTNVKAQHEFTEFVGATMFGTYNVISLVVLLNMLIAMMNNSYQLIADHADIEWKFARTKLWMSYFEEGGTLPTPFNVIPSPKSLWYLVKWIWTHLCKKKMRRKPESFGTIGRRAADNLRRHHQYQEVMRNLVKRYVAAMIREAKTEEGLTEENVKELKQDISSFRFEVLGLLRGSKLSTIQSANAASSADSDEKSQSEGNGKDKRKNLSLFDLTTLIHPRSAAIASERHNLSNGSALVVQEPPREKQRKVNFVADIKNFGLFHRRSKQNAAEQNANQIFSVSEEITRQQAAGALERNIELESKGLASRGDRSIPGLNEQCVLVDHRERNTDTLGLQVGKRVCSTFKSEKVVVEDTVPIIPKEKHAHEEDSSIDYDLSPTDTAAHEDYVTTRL

[4] = cytotoxicity toward NIH3T3 fibroblasts, dose response, counter-screen, cell-based, ATP luminescence, mouse fibroblasts (AID 2010); type: functional;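 note: cells exposed to compound for about 90 hours before reading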
[5] = inhibitors of intracellular T. cruzi replication, confirmation, NIH3T3 host cells, beta-gal luminescence (AID 2044); type: functional, cell-based;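 note: intracellular parasites grown in NIH/3T3 mouse fibroblasts as host cells; luminescent beta-galactosidase reporter signal from transgenic T. cruzi replicating inside host cells; inhibitors lower the luminescence signal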
[6] = target: Protein-tyrosine kinase 2-beta (Homo sapiens, UniProt Q14289);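 note: potency of inhibitors of PYK2 kinase phosphorylation of poly-GT substrate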
Sequence of Protein-tyrosine kinase 2-beta (Q14289 whole entry): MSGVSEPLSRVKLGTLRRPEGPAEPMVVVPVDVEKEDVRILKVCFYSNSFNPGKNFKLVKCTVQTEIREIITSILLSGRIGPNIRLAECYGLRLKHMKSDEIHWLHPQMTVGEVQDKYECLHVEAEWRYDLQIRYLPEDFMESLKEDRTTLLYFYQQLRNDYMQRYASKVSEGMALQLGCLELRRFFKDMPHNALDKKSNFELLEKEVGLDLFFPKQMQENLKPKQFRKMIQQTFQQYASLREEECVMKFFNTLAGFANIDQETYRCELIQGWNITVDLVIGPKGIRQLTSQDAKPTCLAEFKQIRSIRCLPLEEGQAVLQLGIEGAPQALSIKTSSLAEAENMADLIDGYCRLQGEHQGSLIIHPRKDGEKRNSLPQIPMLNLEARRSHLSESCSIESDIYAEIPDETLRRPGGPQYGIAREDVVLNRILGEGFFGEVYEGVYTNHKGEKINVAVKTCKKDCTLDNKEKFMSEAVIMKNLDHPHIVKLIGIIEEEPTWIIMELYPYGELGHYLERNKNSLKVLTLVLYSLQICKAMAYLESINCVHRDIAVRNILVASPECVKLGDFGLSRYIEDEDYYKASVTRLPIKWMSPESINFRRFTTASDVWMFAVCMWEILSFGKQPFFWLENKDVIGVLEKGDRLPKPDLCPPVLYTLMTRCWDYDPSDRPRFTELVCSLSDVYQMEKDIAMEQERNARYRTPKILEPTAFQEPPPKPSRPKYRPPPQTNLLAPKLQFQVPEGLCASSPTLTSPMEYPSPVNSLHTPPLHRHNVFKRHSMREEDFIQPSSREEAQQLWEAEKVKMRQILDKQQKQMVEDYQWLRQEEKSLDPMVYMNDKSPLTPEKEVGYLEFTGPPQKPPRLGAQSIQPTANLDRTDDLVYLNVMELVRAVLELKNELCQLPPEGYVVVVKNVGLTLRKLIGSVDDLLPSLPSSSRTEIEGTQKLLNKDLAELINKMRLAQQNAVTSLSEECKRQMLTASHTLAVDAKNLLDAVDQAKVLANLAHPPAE

[7] = cytotoxicity in HPDE-C7 cells, cell-based, fluorescence, HTS (AID 430); type: functional; conditions: Homo sapiens
[8] = cytotoxicity in KRAS-transformed pancreatic duct cells, primary screen, cell-based, fluorescence, HTS (AID 431); type: functional; conditions: Homo sapiens;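 note: cell line used: HPDE-C7K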
INS1 = assay: beta cell apoptosis inhibitors, cytokine rescue, dose response, luminescence, retest (AID 449756); type: functional, cell-based; conditions: Rattus norvegicus;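 note: cell death triggered by IL-1 beta plus TNF-alpha plus IFN-gamma mixture; protective hits raise ATP signal compared with cytokine alone wells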
[9] = NIH-3T3 fibroblast cytotoxicity, dose response, cytotoxicity control, cell-based, fluorescence, Alamar Blue, secondary assay (AID 2327); type: functional;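 note: NIH-3T3 mouse fibroblasts cultured with fluconazole at 8 µg/mL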
[10] = HEK293T cytotoxicity, dose response, cytotoxicity control for miR-122 modulator project, cell-based, activator set, cherry-pick (AID 720690); type: functional;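 note: HEK293T human cells scored for general mammalian cytotoxicity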
[11] = C. albicans growth with fluconazole, confirmation, fluorescence, retest (AID 2467); type: functional, cell-based
[12] = HEK293T cytotoxicity, dose response, cytotoxicity control for miR-122 modulator project, cell-based, inhibitor set, cherry-pick, set 2 (AID 720697); type: functional
[13] = target: T3, Serine/threonine-protein phosphatase (Candida dubliniensis (strain CD36 / CBS 7987 / NCPF 3949 / NRRLY-17841) (Yeast), UniProt B9W6M3); assay: calcineurin pathway inhibitors in yeast reporter, dose response, S. cerevisiae, CDRE-lacZ, luminescence, secondary (AID 2388); type: functional, cell-based;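 note: yeast reporter cells carrying a calcineurin-responsive lacZ construct stimulated with calcium chloride; luminescent beta-galactosidase reporter signal in whole cells rather than isolated phosphatase activity; potency for inhibition where a drop in reporter signal means calcineurin blockade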
T3 sequence (B9W6M3 whole entry): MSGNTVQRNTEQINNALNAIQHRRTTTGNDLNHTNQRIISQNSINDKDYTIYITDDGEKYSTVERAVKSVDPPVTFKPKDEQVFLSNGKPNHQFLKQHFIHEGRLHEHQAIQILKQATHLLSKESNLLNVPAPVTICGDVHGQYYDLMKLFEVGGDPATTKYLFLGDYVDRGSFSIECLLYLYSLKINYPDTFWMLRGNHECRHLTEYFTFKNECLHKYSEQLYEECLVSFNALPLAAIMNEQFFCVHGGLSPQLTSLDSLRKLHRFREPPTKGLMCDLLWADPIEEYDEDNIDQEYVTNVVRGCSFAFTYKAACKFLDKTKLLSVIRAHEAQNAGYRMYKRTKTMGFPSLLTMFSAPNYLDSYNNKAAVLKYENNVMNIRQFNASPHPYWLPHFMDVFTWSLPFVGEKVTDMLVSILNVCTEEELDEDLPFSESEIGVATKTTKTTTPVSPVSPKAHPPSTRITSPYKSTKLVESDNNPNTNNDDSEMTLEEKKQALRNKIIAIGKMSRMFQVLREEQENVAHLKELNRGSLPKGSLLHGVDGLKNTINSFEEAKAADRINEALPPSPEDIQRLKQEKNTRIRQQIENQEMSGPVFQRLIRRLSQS

[14] = target: ATP-dependent molecular chaperone HSP82 (Candida albicans (strain WO-1) (Yeast), UniProt C4YTQ8); assay: loss of DOC-induced GRE-beta-galactosidase reporter signal, dose response, Hsp90 inhibitor project, S. cerevisiae, luminescence (AID 2400); type: functional, cell-based;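 note: beta-galactosidase luminescence from glucocorticoid response element reporter as proxy for Hsp90 function; inhibitor potency where signal loss means Hsp90 inhibition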
Sequence of ATP-dependent molecular chaperone HSP82 (C4YTQ8 whole entry): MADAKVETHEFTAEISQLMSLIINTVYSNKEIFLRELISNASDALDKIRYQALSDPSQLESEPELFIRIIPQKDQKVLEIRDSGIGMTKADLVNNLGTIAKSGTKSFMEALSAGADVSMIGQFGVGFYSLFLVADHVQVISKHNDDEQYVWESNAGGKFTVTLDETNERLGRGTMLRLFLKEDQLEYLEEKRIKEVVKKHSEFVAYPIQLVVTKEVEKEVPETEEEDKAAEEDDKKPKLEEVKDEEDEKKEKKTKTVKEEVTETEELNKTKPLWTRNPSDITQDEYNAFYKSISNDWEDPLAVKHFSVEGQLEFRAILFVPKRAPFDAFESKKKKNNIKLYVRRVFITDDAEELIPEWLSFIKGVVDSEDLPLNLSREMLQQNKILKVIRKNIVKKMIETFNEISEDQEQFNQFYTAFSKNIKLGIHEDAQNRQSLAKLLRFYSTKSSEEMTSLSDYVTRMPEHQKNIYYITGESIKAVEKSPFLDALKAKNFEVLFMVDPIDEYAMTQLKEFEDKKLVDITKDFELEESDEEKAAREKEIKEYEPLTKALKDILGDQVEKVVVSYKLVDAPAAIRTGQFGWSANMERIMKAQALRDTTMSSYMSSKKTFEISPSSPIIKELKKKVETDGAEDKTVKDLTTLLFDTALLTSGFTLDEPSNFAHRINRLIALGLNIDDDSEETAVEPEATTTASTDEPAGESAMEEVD

Estrogen receptor beta = Estrogen receptor beta (Homo sapiens, UniProt Q92731); assay: ERβ–SRC-3 coactivator interaction inhibitors, confirmation, orthogonal assay, biochemical, ELISA, streptavidin-HRP readout (AID 1060)
Sequence of Estrogen receptor beta (Q92731 whole entry): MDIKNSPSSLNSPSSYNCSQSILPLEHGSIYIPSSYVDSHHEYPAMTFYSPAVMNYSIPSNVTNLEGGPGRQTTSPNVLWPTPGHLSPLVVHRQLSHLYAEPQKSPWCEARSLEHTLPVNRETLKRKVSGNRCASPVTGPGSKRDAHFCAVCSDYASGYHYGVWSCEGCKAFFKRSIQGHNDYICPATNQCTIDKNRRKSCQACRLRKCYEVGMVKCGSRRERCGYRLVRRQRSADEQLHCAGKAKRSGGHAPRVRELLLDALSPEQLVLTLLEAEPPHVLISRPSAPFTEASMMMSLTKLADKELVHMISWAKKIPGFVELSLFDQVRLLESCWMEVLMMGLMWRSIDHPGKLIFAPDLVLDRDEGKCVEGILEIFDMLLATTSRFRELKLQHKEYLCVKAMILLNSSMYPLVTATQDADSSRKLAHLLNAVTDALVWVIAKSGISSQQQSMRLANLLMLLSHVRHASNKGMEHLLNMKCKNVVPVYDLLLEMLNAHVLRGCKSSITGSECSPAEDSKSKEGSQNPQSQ

[15] = target: T4, Rac GTPase-activating protein 1 (Homo sapiens, UniProt Q9H0H5); assay: MgcRacGAP GTPase-activating activity inhibitors, confirmation, biochemical, ADP Hunter fluorescence, primary and confirmatory (AID 624330); type: functional
T4 sequence (Q9H0H5 whole entry): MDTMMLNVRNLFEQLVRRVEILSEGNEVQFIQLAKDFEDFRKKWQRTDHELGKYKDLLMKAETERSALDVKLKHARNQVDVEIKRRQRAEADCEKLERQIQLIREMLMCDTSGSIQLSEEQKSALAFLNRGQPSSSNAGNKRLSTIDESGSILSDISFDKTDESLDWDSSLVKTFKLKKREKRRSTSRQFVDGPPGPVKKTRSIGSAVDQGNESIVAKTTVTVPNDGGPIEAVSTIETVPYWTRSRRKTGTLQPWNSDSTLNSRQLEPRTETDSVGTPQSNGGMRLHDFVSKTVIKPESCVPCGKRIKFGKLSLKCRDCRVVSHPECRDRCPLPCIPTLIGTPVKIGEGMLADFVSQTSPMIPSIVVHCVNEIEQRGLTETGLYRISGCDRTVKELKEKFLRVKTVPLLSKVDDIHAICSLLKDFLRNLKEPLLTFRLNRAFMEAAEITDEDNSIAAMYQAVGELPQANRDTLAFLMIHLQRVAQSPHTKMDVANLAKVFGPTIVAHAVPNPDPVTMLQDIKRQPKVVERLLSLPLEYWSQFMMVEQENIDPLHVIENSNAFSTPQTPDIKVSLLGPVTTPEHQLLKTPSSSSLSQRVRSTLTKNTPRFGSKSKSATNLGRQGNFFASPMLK

Protein skinhead-1 = target: T5, Protein skinhead-1 (Caenorhabditis elegans, UniProt P34707); type: functional
T5 sequence (P34707 whole entry): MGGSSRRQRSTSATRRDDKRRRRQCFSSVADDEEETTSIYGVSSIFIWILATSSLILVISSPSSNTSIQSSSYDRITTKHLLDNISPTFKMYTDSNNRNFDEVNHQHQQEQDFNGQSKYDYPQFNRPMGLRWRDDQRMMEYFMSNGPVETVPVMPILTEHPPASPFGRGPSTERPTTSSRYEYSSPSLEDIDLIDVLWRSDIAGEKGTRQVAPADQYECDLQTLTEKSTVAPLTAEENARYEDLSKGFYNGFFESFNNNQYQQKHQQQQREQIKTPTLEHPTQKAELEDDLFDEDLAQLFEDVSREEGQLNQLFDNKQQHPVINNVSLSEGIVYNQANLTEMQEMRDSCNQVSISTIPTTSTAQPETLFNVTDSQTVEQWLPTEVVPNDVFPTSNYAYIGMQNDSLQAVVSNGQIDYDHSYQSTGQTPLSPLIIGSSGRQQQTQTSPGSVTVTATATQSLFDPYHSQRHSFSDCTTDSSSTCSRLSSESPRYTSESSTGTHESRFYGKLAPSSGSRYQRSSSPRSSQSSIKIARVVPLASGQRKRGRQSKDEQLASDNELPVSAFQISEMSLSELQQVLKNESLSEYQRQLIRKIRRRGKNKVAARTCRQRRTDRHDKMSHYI

[16] = Luminescence Cell-Based Dose Retest to Confirm Inhibitors of Cancer Stem Cells. [Related pubchem assays (depositor defined):AID2717, AID2721]; type: functional, Homo sapiens; conditions: Homo sapiens
Nonstructural protein 1 = Nonstructural protein 1 (Influenza A virus, UniProt Q194T2); type: functional, Influenza A virus (A/California/07/2009(H1N1))
Sequence of Nonstructural protein 1 (Q194T2 whole entry): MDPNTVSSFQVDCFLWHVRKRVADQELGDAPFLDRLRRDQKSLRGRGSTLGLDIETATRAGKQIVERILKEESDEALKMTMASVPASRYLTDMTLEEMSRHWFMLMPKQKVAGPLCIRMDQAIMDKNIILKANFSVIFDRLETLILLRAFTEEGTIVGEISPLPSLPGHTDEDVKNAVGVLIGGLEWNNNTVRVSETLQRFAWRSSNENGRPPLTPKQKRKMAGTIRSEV

[17] = target: T6, Calpain-2 catalytic subunit (Sus scrofa, UniProt P43367); assay: pig calpain II inhibitor potency, dose response, biochemical, fluorogenic peptide substrate (AID 1420); type: functional
T6 sequence (P43367 whole entry): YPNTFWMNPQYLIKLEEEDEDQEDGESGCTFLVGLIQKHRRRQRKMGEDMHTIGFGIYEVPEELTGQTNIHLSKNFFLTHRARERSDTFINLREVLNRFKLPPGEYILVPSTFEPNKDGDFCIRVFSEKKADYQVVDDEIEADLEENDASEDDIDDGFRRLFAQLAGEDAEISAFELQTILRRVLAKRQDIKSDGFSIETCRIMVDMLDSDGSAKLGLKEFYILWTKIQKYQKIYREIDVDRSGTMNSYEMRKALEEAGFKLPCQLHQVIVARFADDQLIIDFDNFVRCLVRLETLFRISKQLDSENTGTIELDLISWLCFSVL

[18] = target: Voltage-gated inwardly rectifying potassium channel KCNH2 (Homo sapiens, UniProt Q12809); assay: hERG protection from proarrhythmic block, potency, dose response, cell-based, thallium flux (AID 2121); type: ADME
Sequence of Voltage-gated inwardly rectifying potassium channel KCNH2 (Q12809 whole entry): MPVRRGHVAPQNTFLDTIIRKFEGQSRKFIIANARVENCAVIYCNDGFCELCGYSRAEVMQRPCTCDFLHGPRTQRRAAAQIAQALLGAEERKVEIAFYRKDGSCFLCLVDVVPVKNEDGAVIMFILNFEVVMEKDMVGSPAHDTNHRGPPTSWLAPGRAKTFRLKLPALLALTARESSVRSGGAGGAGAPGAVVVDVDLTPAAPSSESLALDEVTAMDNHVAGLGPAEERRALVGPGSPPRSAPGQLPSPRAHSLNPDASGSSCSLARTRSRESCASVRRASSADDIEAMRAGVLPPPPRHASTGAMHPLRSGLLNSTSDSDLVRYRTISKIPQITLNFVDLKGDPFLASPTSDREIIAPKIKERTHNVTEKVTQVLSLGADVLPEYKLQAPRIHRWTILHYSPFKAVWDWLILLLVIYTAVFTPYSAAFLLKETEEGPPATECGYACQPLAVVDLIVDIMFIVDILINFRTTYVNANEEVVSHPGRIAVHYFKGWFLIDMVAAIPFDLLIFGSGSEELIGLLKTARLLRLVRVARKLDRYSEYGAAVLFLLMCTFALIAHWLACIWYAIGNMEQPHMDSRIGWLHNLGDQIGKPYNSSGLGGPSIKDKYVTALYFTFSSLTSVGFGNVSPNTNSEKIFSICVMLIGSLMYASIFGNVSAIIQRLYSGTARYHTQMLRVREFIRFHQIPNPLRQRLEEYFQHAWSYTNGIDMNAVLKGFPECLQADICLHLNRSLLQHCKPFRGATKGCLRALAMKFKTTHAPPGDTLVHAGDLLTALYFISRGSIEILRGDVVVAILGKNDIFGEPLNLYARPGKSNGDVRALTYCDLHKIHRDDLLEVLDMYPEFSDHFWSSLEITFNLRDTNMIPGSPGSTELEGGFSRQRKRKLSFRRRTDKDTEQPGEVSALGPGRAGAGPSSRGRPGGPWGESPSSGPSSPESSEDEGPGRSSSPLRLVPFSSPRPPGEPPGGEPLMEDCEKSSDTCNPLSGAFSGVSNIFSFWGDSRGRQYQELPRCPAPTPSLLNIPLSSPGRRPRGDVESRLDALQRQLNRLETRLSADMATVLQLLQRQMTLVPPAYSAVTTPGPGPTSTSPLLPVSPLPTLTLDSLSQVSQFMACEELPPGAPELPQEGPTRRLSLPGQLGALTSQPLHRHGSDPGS

Structure (SMILES): CCOC(=O)CNC(=O)CSc1ncnc2c1nnn2-c1ccc(F)cc1
- IC50 [1]: > 100 µM (active)

Structure (SMILES): Cc1ccc(-c2c[n+](Cc3cccc(Cl)c3)c3n2CCC3)cc1
- EC50 (cells): 0.025 µM (active)
- AC50 [2]: 12.2 µM (active)
- EC50 [3]: 1.33 µM (active)
- EC50 [4]: > 30 µM (not active)
- EC50 [5]: < 0.1 µM (active)

Structure (SMILES): N#C/C(=C/c1ccc(-c2ccc(Br)cc2)o1)C(=O)NC1CCCCC1
- IC50 [1]: > 100 µM (active)

Structure (SMILES): Cc1nn2c(c1-c1ccccc1)N=C1CCCC(O)=C1C2c1ccccc1 (centres undefined)
- IC50 [6]: > 69.5 µM (not active)

Structure (SMILES): CN(C)CCN(C(=O)c1cc(Cl)sc1Cl)c1nc2ccc(F)cc2s1
- EC50 (cells): 0.211 µM (active)
- EC50 [4]: > 60 µM (not active)
- EC50 [5]: < 0.1 µM (active)

Structure (SMILES): CCOC(=O)C1CCN(Cc2c[nH]nc2-c2ccc(C)cc2)CC1
- EC50 [7]: > 20 µM (not active)
- EC50 [8]: > 20 µM (not active)

Structure (SMILES): O=C(Oc1c(CN2CCOCC2)cc(Cl)c2cccnc12)c1ccc(F)cc1
- AC50 (INS1): 3.99 µM (active)
- EC50 [7]: 4.28 µM (active)
- EC50 [9]: > 160 µM (inconclusive)
- AC50 [10]: 9.1 µM (active)
- EC50 [11]: 1.54 µM (active)
- EC50 [8]: 12.7 µM (active)
- AC50 [12]: 5.7 µM (active)
- EC50 [13]: > 180 µM (inactive)
- EC50 [4]: > 60 µM (not active)
- EC50 [5]: 4.69 µM (active)
- EC50 [14]: > 160 µM (inactive)

Structure (SMILES): Cc1ccccc1-c1ccc(Nc2ccc(N3CCOCC3)cc2)nn1
- IC50 [6]: 14.5 µM (not active)
- IC50 (Estrogen receptor beta): < 0.023 µM (not active)
- EC50 [4]: > 60 µM (not active)
- EC50 [5]: 1.42 µM (active)
- IC50 [15]: 79.6 µM (active)

Structure (SMILES): Cc1ccc(C(C#N)c2ccc3c(C(F)(F)F)cc(C(F)(F)F)nc3n2)cc1 (centres undefined)
- IC50 (Protein skinhead-1): > 100 µM (inactive)
- AC50 [16]: 1.78 µM (active)
- IC50 (Nonstructural protein 1): 24.4 µM (active)
- IC50 [17]: > 50 µM (not active)
- EC50 [18]: 6 µM (active)
